The test system of data set [1] is HIV. The data set can be described thus: anti-HIV activity (MT-4/MTT) of incubates after incubation in human subcellular liver fractions. The data set is classed as cell-based. The following applies: after incubation in human subcellular liver fraction, MT-4 cells. Here is the method: (§1) The metabolism of the present compounds was studied in subcellular liver fractions (1200×g) of rat, dog or human. The compounds were incubated at a final […] concentration of 30 μM; incubations were performed up to 120 minutes at a final protein concentration equivalent to 1 mg/ml microsomal proteins. Reactions were stopped by the addition of an equal volume (2 ml) of […]. Samples were stored at ≦−18° C. until analysis. […] Table 2 lists IC50 values prior to and after incubation in subcellular liver fractions.
(§2) A rapid, sensitive and automated assay procedure was used for the in vitro evaluation of anti-HIV agents. […] The viability of both HIV- and mock-infected cells was assessed spectrophotometrically via the in situ reduction of 3-(4,5-dimethylthiazol-2-yl)-2,5-diphenyltetrazolium bromide (MTT). […] The percent protection achieved by the compound in HIV-infected cells was calculated by the following formula:
(§3) [formula] whereby (ODT)HIV is the optical density measured with a given concentration of the test compound in HIV-infected cells; (ODC)HIV is the optical density measured for the control untreated HIV-infected cells; (ODC)MOCK is the optical density measured for the control untreated mock-infected cells; all optical density values were determined at 540 nm. […]

Data set [2] has as its system HIV. In words: anti-HIV activity (MT-4/MTT) of incubates after incubation in dog subcellular liver fractions. The data set is classed as cell-based. The following applies: Human immunodeficiency virus 1, MT4, 2 h; after incubation in dog subcellular liver fraction, 120 minutes; MT-4 cells. Here is the method:
as §1, §2, §3

Data set [3] concerns HIV. The data set can be described thus: anti-HIV activity (MT-4/MTT) of incubates after incubation in rat subcellular liver fractions. The data set is classed as cell-based. Conditions: Human immunodeficiency virus 1, MT4, 2 h; after incubation in rat subcellular liver fraction, 120 minutes; MT-4 cells. Here is the method: as §1, §2, §3
Data set [4] relates to HIV. In words: anti-HIV activity in MT-4 cells (MTT, HIV-induced cytopathic effect), prior to incubation. The data set is classed as cell-based. Conditions: Human immunodeficiency virus 1, MT4; prior to incubation in subcellular liver fractions; HIV-infected MT-4 cells; read-out: IC50 before. Here is the method:
as §1, §2, §3

The compound `CCOCN(c1ccc(C#N)cc1)c1ncc(Br)c(Oc2c(C)cc(C#N)cc2C)n1` [Compound 1] gave a melting point of 181 to 182 °C. The compound also yielded an IC50 in data set [1] (Human immunodeficiency virus 1, MT4, 0.5 h, 30 minutes) of 0.293 µM. Also, in data set [1] (Human immunodeficiency virus 1, MT4, 2 h, 120 minutes), the IC50 was 0.165 µM. The same compound yielded an IC50 in data set [2] of 0.138 µM. Also, half-maximal inhibition in data set [3] (IC50) required 0.175 µM. The IC50 in data set [4] is above 1 µM.

The compound `Cc1cc(C#N)cc(C)c1Oc1nc(N(COCCO)c2ccc(C#N)cc2)ncc1Br` [Compound 3] gave a melting point of 199 to 200 °C. The compound also returned an IC50 in data set [2] of 0.809 µM. In addition, the IC50 in data set [4] was above 1 µM.

Source of the values: US7034019B2, “Prodrugs of HIV replication inhibiting pyrimidines” (Janssen Pharmaceutica N.V., priority 2000, dated 2006).
